Reference: US8785499B2 (priority 2009, dated 2014)

How the values were obtained:
baNadD = baNadD (Bacillus anthracis, UniProt C3L5T6); assay: biochemical; format: biochemical
ecNadD = ecNadD (Escherichia coli (strain K12), UniProt P0A752); assay: biochemical; format: biochemical

Sequence of baNadD (C3L5T6 whole entry, looked up): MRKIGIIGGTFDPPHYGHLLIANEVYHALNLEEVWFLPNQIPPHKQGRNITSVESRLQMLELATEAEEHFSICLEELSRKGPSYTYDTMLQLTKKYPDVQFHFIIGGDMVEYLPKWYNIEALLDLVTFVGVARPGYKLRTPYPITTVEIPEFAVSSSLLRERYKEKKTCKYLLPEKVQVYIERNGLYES

Row | Compound | […]. anthracis (baNadD) | […]. coli (ecNadD)
1 | COC(=O)c1cc(O)c(C(=O)Nc2ccc(Cl)c(Cl)c2)s1 [compound 052] | 24% | 16%
2 | CCc1c(O)nc(SC2CC(=O)N(c3ccccc3)C2=O)nc1O (stereo not drawn) [compound 053] | 0% | 16%
3 | Nc1ccc(/C=C/c2cccc(C(=O)O)n2)cc1 [compound 054] | 27% | 15%
4 | CC(Sc1ccccc1)C(=O)Nc1ccccc1C(=O)O (stereo not drawn) [compound 055] | 15% | 15%
5 | O=[N+]([O-])c1ccc(/C=N\NS(=O)(=O)c2ccc(Cl)cc2)o1 [compound 057] | 28% | 15%
6 | Nc1nnc(SCC(=O)Nc2nccs2)n1-c1ccccc1 [compound 058] | 0% | 15%
7 | NS(=O)(=O)c1ccc2nc(NC(=O)c3ccncc3)sc2c1 [compound 059] | 0% | 15%
8 | Oc1ccc(Br)cc1/C=N/Nc1nnn[nH]1 [compound 060] | 0% | 15%
9 | O=[N+]([O-])/C=C/Nc1cccc([N+](=O)[O-])c1 [compound 061] | 0% | 14%
10 | N/C(=N\OCC(=O)Nc1ccc([NH2+][O-])cc1)c1nonc1N [compound 062] | 0% | 14%
11 | O=[N+]([O-])c1cc2c(cc1/C=N/Nc1nnn[nH]1)OCO2 [compound 063] | 81% | 14%
12 | CCn1c(SCC(N)=O)nnc1-c1ccc(Cl)cc1 [compound 065] | 0% | 14%
13 | Cc1cc(N/C=C2\N=C(c3ccc(Cl)cc3)OC2=O)no1 [compound 066] | 80% | 13%
14 | O=C(O)c1cc(C(=O)O)c2cc(Oc3ccc4nc(C(=O)O)cc(C(=O)O)c4c3)ccc2n1 [compound 067] | 1% | 13%
15 | O=C1C/C(=C/NCCc2ccc(O)cc2)C(=O)N1 [compound 068] | 10% | 13%
16 | CN1C(=O)S/C(=C\c2ccc(OCC(=O)O)c(I)c2)C1=O [compound 069] | 7% | 13%
17 | O=C(O)/C=C/c1ccc(S(=O)(=O)NCc2ccc3c(c2)OCO3)cc1 [compound 070] | 5% | 13%
18 | Cc1ccc(C(=O)Nc2ccccc2)cc1S(=O)(=O)Nc1ccccn1 [compound 071] | 7% | 12%
19 | O=C(CSS(=O)(=O)O)NCCc1c[nH]c2ccccc12 [compound 072] | 0% | 12%
20 | NS(=O)(=O)c1ccc(NC(=O)CSc2ccc3ccccc3n2)cc1 [compound 073] | 0% | 12%
21 | CSc1ccc(/C=N/c2ccc(S(N)(=O)=O)cc2)cc1 [compound 076] | 0% | 12%
22 | O=C(CSc1nc2ccccc2o1)Nc1ccc(Cl)cn1 [compound 077] | 0% | 12%
23 | N=C(N)N/N=C/c1ccc([N+](=O)[O-])cc1 [compound 078] | 0% | 12%
24 | O=C(NCCc1nc2ccccc2[nH]1)c1cccs1 [compound 079] | 0% | 12%
25 | O=C(COc1ccc(Cl)cc1)N/N=C/c1cccs1 [compound 080] | 24% | 11%
26 | NS(=O)(=O)c1ccc(NC(=O)CCc2ccccc2)cc1 [compound 081] | 0% | 11%
27 | O=c1[nH]c2ccc(NC(=S)Nc3ccccc3)cc2[nH]1 [compound 083] | 0% | 11%

Row | Compound | […]. anthracis (baNadD) | […]. coli (ecNadD)
28 | NS(=O)(=O)c1ccc(NC(=S)Nc2ccc(Cl)cc2F)cc1 [compound 084] | 0% | 11%
29 | NS(=O)(=O)c1ccc(NC(=S)NCc2ccccc2)cc1 [compound 085] | 0% | 11%
30 | O=C(Nc1ccc(O)cc1)c1ccc(Cl)c(Cl)c1 [compound 086] | 0% | 11%
31 | O=C(O)CCNc1ccc(Br)cc1C(=O)O [compound 087] | 0% | 11%
32 | Cc1nnc(SCC(=O)Nc2ccc(Cl)cn2)s1 [compound 088] | 0% | 11%
33 | O=C(O)CC(NC(=O)c1ccccc1NC(=O)c1ccco1)C(=O)O (stereo not drawn) [compound 089] | 37% | 10%
34 | COc1cc(OC)cc(-c2cn[nH]c2N)c1 [compound 090] | 0% | 10%
35 | Cn1ccc(NC(=O)Nc2ccc(Cl)cc2Cl)n1 [compound 091] | 0% | 10%
36 | Cc1ccc(S(=O)(=O)/N=C/c2cccnc2)cc1 [compound 092] | 0% | 10%
37 | CCS(=O)(=O)CCSc1nc2ccccc2o1 [compound 094] | 0% | 10%
38 | NS(=O)(=O)c1ccc(CCNC(=S)Nc2ccc(S(N)(=O)=O)cc2)cc1 [compound 095] | 0% | 10%
39 | NC(=O)c1ccc(NC(=O)COc2ccc3ccccc3c2)cc1 [compound 097] | 63% | 10%
40 | COc1cccc(C=C2C(=O)NC(=O)NC2=O)c1OCC(=O)O [compound 098] | 13% | 10%
41 | Cc1cc(OCC(=O)Nc2ccc(S(N)(=O)=O)cc2)ccc1Cl [compound 099] | 2% | 10%
42 | O=C(CSc1nnc(-c2ccncc2)[nH]1)Nc1ccccc1Cl [compound 100] | 0% | 9%
43 | NS(=O)(=O)c1ccc(CCNC(=O)COc2ccc(Cl)cc2Cl)cc1 [compound 101] | 0% | 9%
44 | Cc1nc(N)nc(O)c1Oc1ccccc1 [compound 102] | 6% | 9%
45 | COc1ccc(NS(=O)(=O)c2ccc(SC)cc2)cc1 [compound 103] | 0% | 9%
46 | Nc1nnc(SCc2ccccc2Cl)s1 [compound 104] | 29% | 9%
47 | Cc1ccc(NC(=S)NC(=O)c2ccc(F)cc2)nc1 [compound 105] | 51% | 9%
48 | CCOC(=O)c1cc(-c2ccc(C)cc2)[nH]n1 [compound 106] | 0% | 9%
49 | O=C(O)c1cc(Cl)c(Cl)cc1C(=O)Nc1ccc(O)cc1 [compound 107] | 0% | 9%
50 | Cn1nnnc1SCC(=O)Nc1ccc(Br)cc1Cl [compound 108] | 0% | 9%
51 | CCCn1cc(C(CC(=O)O)C(=O)O)c2ccccc21 (stereo not drawn) [compound 110] | 0% | 9%
52 | O=c1/c(=C/c2ccc(O)cc2)sc2nc3cc(Br)cnc3n12 [compound 111] | 6% | 9%
53 | O=C(Nc1ncnc2[nH]cnc12)c1ccccc1 [compound 112] | 0% | 8%
54 | Br.Cn1ccnc1SCC(=O)c1ccccc1 [compound 113] | 12% | 8%
